# According to PMC10755736, “Modulating Liquid–Liquid Phase Separation of Nck Adaptor Protein against Enteropathogenic Escherichia coli Infection” (ACS Central Science, 2023):
# “Also recorded” adds a separate entry of the source. Non-standard residues stand in square brackets, D forms with d. Residues, ends and D or L forms follow the SMILES beside them. *: point of attachment. Biotin = O=C1N[C@H]2[C@H](CS[C@H]2CCCCC(=O)*)N1; Benzoyl(4-SO2F) = O=C(c1ccc(S(=O)(=O)F)cc1)*; pY = N[C@@H](Cc1ccc(OP(=O)(O)O)cc1)C(=O)O; Dap = NC[C@H](N)C(=O)O
# Experiments:
# [1] = target: T1, Nck (Homo sapiens, UniProt P16333); experiment: Crosslinking of peptides with recombinant Nck in vitro (SDS-PAGE, Western blotting); type: binding; details: PBS, 1 h
# T1 construct: GST (followed by PreScission/HRV 3C site) (N, cleaved yes); made in house; host or cells: E. coli BL21(DE3)
# Source text: Although peptide Y474 can block Nck-mediated LLPS, the requirement of a high concentration of the blocker peptide is hard to achieve inside the cell. […] The side chains of the Nck lysine residues are pointing toward the residues at pY+1 and pY+2 positions with distances of only 4 to 6 Å. This unique feature gives us an opportunity to design covalent blockers for Nck-SH2 by installing electrophiles at the pY+1 or pY+2 positions to enable a proximal conjugation reaction with one of the lysine residues. Covalent blockage through the characteristic lysine residues will maximize the specificity of the inhibitor toward Nck-SH2. As sulfonyl fluoride has been reported to react with proteinaceous nucleophiles such as lysine, histidine, or cysteine,[34] we installed a sulfonyl fluoride group on the side chain of diaminopropionic acid, giving an unnatural amino acid X1 at different positions such as pY+1 (Asp6) and pY+3 (Val8) of peptide EEHIpYDEVAAD. Besides the amino acid X1, we also included α-chloroacetyl-carrying amino acids X2 and X3, which may also react with proteineous nucleophiles. Electrophile-containing reactive peptides p1 to p11 were synthesized with a biotin tag at the N-termini (Figure 4b). After the reactive peptides were incubated with recombinant Nck protein at a 5:1 ratio at 37 °C in PBS for 1 h, the formation of covalently linked Nck–peptide conjugates could be observed, shown as new protein bands with molecular weights higher than that of Nck based on denatured SDS-PAGE and Western blotting analysis against biotin (Figure 4c). […] At 37 °C in PBS buffer, the 1:1 reaction efficiency reached 50% in 2 min (Figure S4 in the Supporting Information).
# Figure 4 Covalently reactive peptides designed based on a Tir peptide. (a) Crystal structure of Nck-SH2 in complex with a peptide EEHIpYDEVAAD from EPEC protein Tir (PDB: 2CI9). (b) List of synthetic reactive peptides. (c) Unnatural amino acids in the peptides. (d) SDS-PAGE (top) and Western blotting (bottom) analyses showing covalent conjugation of the peptides with Nck. […]
# [2] = test system: Nck in Caco-2 cells; experiment: In cell reaction of p1 with endogenous Nck (Western blot); type: cell-based; details: L17E and p1 (printed 40 mM and 10 mM) overnight; anti-Nck Western blot
# Description: Caco-2 cells were seeded in a 24-well plate at a density of 1×10^4 cells for 24 h and pretreated with peptide complexes for 2 h. After washing with DMEM, cells were infected with EPEC at selected MOI values for 3 h at 37 ℃. Cells were then treated with gentamicin ([…]) for 2 h and lysed with 1% Triton X-100 for 15 min. The lysates were diluted 100 or 1000 folds to be spread on LB agar plates […]
# Immunofluorescence Confocal Microscopy
# Infected cells were fixed with 4% PFA and treated with 0.1% Triton X-100 for 10 min. And then the samples were blocked with 3% BSA for 1 h, incubated with anti-Tir antibody (Abbexa, C ambridge, UK) at 1:200 at 4℃ over night and followed by incubation with Alexa Fluo 488 goat anti -rabbit IgG secondary antibody at room temperature for 2 h. Cells were treated with DAPI (Invitrogen) for 10 min, then stained with phalloidin (Alexa Fluor 594 -conjugated phalloidin, Invitrogen) for 1 h and imaged by a confocal fluorescent microscope (SP8, Leica).
# Caco -2 cells were treated with peptides overnight and lysed via RIPA buffer containing protease inhibitors for 15 min at 4℃. […]
# SPSS 23.0 statistical software was used to process experimental data. The differences between mean ± SEM of three independent experiments were assessed by Student's t -test. […]
structure (smiles),measurement,setting,value
CC[C@H](C)[C@H](NC(=O)[C@H](Cc1c[nH]cn1)NC(=O)[C@H](CCC(=O)O)NC(=O)[C@H](CCC(=O)O)NC(=O)CCCC[C@@H]1SC[C@@H]2NC(=O)N[C@@H]21)C(=O)N[C@@H](Cc1ccc(OP(=O)(O)O)cc1)C(=O)N[C@@H](CNC(=O)c1ccc(S(=O)(=O)F)cc1)C(=O)N[C@@H](CCC(=O)O)C(=O)N[C@H](C(=O)N[C@@H](C)C(=O)N[C@@H](C)C(=O)N[C@@H](CC(=O)O)C(N)=O)C(C)C [p1] (Biotin-EEHI[pY][Dap](Benzoyl(4-SO2F))EVAAD-NH2; N-terminus and C-terminus assumed),number of Nck–peptide conjugate bands,"[1]; p1:Nck 5:1, 37 °C, SDS-PAGE",only one Nck–peptide conjugate band
same,reactivity with Nck,"[1]; peptide:Nck 5:1, 37 °C, SDS-PAGE and anti-biotin Western blotting",highest cross-linking efficiency with Nck; also recorded: noticeable reactivity
same,reaction with endogenous Nck in cytosol,[2],reacted with the endogenous Nck in the cytosol of Caco-2 cells
